Source: US11780821B2, “Inhibitors of fibroblast activation protein” (Praxis Biotech LLC, priority 2017, dated 2023)
Read-outs that look alike come from different tables or passages of the source.

Columns and labels:
[1] = target: T1, recombinant human FAPα (rhFAPα) (Homo sapiens, UniProt Q12884); assay: FAPα enzymatic exopeptidase (dipeptidase) activity assay; format: biochemical; details: for inhibition at 1 µM: read-out: rhFAPα (% exo inh @ 1 μM); for IC50: exopeptidase, read-out: rhFAPα (exo IC50)
T1 construct: purchased R&S system (so in the source)
T1 sequence (Q12884 1-760): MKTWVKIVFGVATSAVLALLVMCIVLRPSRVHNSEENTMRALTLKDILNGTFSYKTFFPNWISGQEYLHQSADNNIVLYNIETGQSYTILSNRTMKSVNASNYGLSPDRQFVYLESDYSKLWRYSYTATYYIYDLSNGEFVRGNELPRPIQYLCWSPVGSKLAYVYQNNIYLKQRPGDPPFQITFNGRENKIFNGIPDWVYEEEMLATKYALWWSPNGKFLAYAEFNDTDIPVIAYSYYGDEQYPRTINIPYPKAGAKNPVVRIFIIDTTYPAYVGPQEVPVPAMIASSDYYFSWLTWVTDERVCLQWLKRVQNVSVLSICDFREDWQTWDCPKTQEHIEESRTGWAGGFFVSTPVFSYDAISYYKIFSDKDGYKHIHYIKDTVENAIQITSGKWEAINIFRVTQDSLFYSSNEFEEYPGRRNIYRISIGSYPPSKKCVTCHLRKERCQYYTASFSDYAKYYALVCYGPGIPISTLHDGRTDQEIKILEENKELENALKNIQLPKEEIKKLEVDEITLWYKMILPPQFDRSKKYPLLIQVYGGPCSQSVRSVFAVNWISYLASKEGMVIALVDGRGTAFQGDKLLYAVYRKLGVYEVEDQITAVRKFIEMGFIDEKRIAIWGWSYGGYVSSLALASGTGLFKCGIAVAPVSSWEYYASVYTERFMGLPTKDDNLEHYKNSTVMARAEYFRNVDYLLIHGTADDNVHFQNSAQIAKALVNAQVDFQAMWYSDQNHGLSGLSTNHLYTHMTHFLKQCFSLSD

[2] = target: T2, recombinant human DPPIV (rhDPPIV) (Homo sapiens, UniProt P27487); assay: DPPIV enzymatic activity assay; format: biochemical; details: H-Gly-Pro-pNA substrate
T2 construct: purchased R&S system (so in the source)
T2 sequence (P27487 whole entry): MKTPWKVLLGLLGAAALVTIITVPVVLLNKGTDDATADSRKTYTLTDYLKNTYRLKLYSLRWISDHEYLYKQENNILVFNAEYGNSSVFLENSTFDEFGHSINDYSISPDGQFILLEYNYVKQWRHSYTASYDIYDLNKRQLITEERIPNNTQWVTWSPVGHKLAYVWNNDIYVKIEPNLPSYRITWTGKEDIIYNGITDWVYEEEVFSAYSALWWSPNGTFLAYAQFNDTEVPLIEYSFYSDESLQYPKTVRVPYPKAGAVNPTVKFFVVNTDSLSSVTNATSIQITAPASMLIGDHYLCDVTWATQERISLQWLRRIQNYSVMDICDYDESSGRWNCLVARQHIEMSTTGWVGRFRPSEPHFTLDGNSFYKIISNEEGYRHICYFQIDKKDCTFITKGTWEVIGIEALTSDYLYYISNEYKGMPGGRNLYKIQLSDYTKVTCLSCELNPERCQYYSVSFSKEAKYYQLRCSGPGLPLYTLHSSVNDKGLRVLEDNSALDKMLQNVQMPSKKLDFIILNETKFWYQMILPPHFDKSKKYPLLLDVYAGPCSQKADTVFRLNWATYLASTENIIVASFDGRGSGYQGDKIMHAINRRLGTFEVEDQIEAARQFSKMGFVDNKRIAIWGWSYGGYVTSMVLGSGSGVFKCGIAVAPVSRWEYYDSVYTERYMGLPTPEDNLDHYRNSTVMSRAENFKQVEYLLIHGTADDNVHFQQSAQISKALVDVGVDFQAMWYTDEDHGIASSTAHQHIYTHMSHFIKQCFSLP

[3] = 1 μM test compound, Z-Gly-Pro-AMC substrate

SMILES	inhibition at 1 µM [1, 3]	also measured
N#Cc1ccc(C(=O)NCC(=O)N2CC(F)(F)C[C@H]2C#N)cc1F [Compound 15, (S)-4-cyano-N-(2-(2-cyano-4,4-difluoropyrrolidin-1-yl)-2-oxoethyl)-3-fluorobenzamide]	25 to 50%	
N#Cc1ccc(C(=O)NCC(=O)N2CC(F)(F)C[C@H]2C#N)cc1 [Compound 17, (S)-4-cyano-N-(2-(2-cyano-4,4-difluoropyrrolidin-1-yl)-2-oxoethyl)benzamide]	25 to 50%	
N#Cc1ccc(C(=O)NCC(=O)N2CC(F)(F)C[C@H]2C#N)c(C(F)(F)F)c1 [Compound 18, (S)-4-cyano-N-(2-(2-cyano-4,4-difluoropyrrolidin-1-yl)-2-oxoethyl)-2-(trifluoromethyl)benzamide]	25 to 50%	
CCN1C(=O)CC[C@@H](C(=O)NCC(=O)N2CC(F)(F)C[C@H]2C#N)[C@@H]1c1ccccc1 [Compound 20, (2R,3R)—N-(2-((S)-2-cyano-4,4-difluoropyrrolidin-1-yl)-2-oxoethyl)-1-ethyl-6-oxo-2-phenylpiperidine-3-carboxamide]	25 to 50%	
N#C[C@@H]1CC(F)(F)CN1C(=O)C1(NC(=O)c2c[nH]c(=O)c3ccccc23)CC1 [Compound 23, (S)—N-(1-(2-cyano-4,4-difluoropyrrolidine-1-carbonyl)cyclopropyl)-1-oxo-1,2-dihydroisoquinoline-4-carboxamide]	< 25%	
CC(NC(=O)c1c[nH]c(=O)c2ccccc12)C(=O)N1CC(F)(F)C[C@H]1C#N (stereo partly drawn) [Compound 25, N-(1-((S)-2-cyano-4,4-difluoropyrrolidin-1-yl)-1-oxopropan-2-yl)-1-oxo-1,2-dihydroisoquinoline-4-carboxamide]		inhibition at 1 µM [1]: < 25%
COc1cnccc1C(=O)NCC(=O)N1CC(F)(F)C[C@H]1C#N [Compound 36]	> 50%	IC50 ([1]; Table 2, Z-Gly-Pro-AMC): < 1000 nM; IC50 ([1]; Table 3): < 1000 nM; IC50 [2]: > 10 µM
N#C[C@@H]1CC(F)(F)CN1C(=O)CNC(=O)C1=NNC(=O)C2C=CC=CC12 (some centres unmarked) [Compound 80]	> 50%	IC50 ([1]; Table 2, Z-Gly-Pro-AMC): < 1000 nM; IC50 ([1]; Table 3): < 1000 nM; IC50 [2]: > 10 µM
Cn1nc(C(=O)NCC(=O)N2CC(F)(F)C[C@H]2C#N)c2ccccc2c1=O [Compound 81]	< 25%	
N#C[C@@H]1CC(F)(F)CN1C(=O)CCCNC(=O)c1c[nH]c(=O)c2ccccc12 [Compound 82, (S)—N-(4-(2-cyano-4,4-difluoropyrrolidin-1-yl)-4-oxobutyl)-1-oxo-1,2-dihydroisoquinoline-4-carboxamide]	< 25%	
N#C[C@@H]1CC(F)(F)CN1C(=O)CNC(=O)c1ccc2[nH]ncc2c1 [Compound 83]	25 to 50%	
N#C[C@@H]1CC(F)(F)CN1C(=O)CNC(=O)c1cc2ccncc2o1 [Compound 84]	25 to 50%	
N#C[C@@H]1CC(F)(F)CN1C(=O)CNC(=O)c1ccn2nccc2c1 [Compound 85]	> 50%	
COc1ccc(C(=O)NCC(=O)N2CC(F)(F)C[C@H]2C#N)c(-c2ccccc2)n1 [Compound 86, (S)—N-(2-(2-cyano-4,4-difluoropyrrolidin-1-yl)-2-oxoethyl)-6-methoxy-2-phenylnicotinamide]	25 to 50%	
N#C[C@@H]1CC(F)(F)CN1C(=O)C1CC(NC(=O)c2c[nH]c(=O)c3ccccc23)C1 (some centres unmarked) [Compound 101]	< 25%	
N#C[C@@H]1CC(F)(F)CN1C(=O)CNC(=O)c1ccc(=O)[nH]c1-c1ccccc1 [compound 30]	< 25%	
N#C[C@H]1CC(F)(F)CN1C(=O)CNC(=O)c1ccncc1C1CC1 [compound 37]		inhibition at 1 µM [1]: > 50%
